# In US20030225044A1, “Method to increase serum levels of vitamins in animals including humans” (priority 2002, published 2003):
# Assays:
# [1] = Serum Vitamin A after nasal administration or drench (Example V); assay type: in vivo, beef steers
# Procedure: (§1) These five treatments were:
# (§2) Treatments were applied and cattle were bled via jugular venipuncture at 0, 6, and 24 hours post-dosing.
# [2] = Serum Vitamin E after nasal administration or drench (Example VI); assay type: in vivo, beef steers
# Procedure: as §1, §2
substance,measurement,setting,value
Vitamin A,Average Serum Levels-Vitamin A,"[1]; Treatment 2: positive control, 15 ml drench, 1,000,000 IU Vitamin A in 15 ml water, 6 Hours",277 ng/mL
same,Average Serum Levels-Vitamin A,"[1]; Treatment 2: positive control, 15 ml drench, 1,000,000 IU Vitamin A in 15 ml water, 24 Hours",247 ng/mL
same,Average Serum Levels-Vitamin A,"[1]; Treatment 2: positive control, 15 ml drench, 1,000,000 IU Vitamin A in 15 ml water, time 0",230 ng/mL
same,Average Serum Levels-Vitamin A,"[1]; Treatment 3: solid form vitamins in 2 ml ethanol, 1,000,000 IU A, 100,000 IU D, 1000 IU B, 1 ml per nostril, 6 Hours",344 ng/mL
same,Average Serum Levels-Vitamin A,"[1]; Treatment 3: solid form vitamins in 2 ml ethanol, 1,000,000 IU A, 100,000 IU D, 1000 IU B, 1 ml per nostril, 24 Hours",326 ng/mL
same,Average Serum Levels-Vitamin A,"[1]; Treatment 3: solid form vitamins in 2 ml ethanol, 1,000,000 IU A, 100,000 IU D, 1000 IU B, 1 ml per nostril, time 0",302 ng/mL
same,Average Serum Levels-Vitamin A,"[1]; Treatment 4: vitamin E, A, D oils, Tween 80, nicotinic acid, Carbopol 934P, Pemulen TR2, NaOH, water, 1,000,000 IU A, 1 ml per nostril, 6 Hours",314 ng/mL
same,Average Serum Levels-Vitamin A,"[1]; Treatment 4: vitamin E, A, D oils, Tween 80, nicotinic acid, Carbopol 934P, Pemulen TR2, NaOH, water, 1,000,000 IU A, 1 ml per nostril, 24 Hours",321 ng/mL
same,Average Serum Levels-Vitamin A,"[1]; Treatment 4: vitamin E, A, D oils, Tween 80, nicotinic acid, Carbopol 934P, Pemulen TR2, NaOH, water, 1,000,000 IU A, 1 ml per nostril, time 0",321 ng/mL
same,Average Serum Levels-Vitamin A,"[1]; Treatment 5: vitamin E, A, D oils, Tween 80, Carbopol TR2, NaOH, water, 1,000,000 IU A, 1 ml per nostril, 6 Hours",349 ng/mL
same,Average Serum Levels-Vitamin A,"[1]; Treatment 5: vitamin E, A, D oils, Tween 80, Carbopol TR2, NaOH, water, 1,000,000 IU A, 1 ml per nostril, 24 Hours",353 ng/mL
same,Average Serum Levels-Vitamin A,"[1]; Treatment 5: vitamin E, A, D oils, Tween 80, Carbopol TR2, NaOH, water, 1,000,000 IU A, 1 ml per nostril, time 0",343 ng/mL
same,course of serum level of Vitamin A,"[1]; Treatment #3: nasal administration of Vitamin A/ethanol solution (FIG. 8, curve 810)",decreased from 6 to 24 hours post-dosing after an initial increase in the first 6 hours
same,course of serum level of Vitamin A,"[1]; Treatment #4, nasal (FIG. 8, curve 830)",increased continuously from 6 hours to 24 hours post-dosing
same,course of serum level of Vitamin A,"[1]; Treatment #5, nasal (FIG. 8, curve 820)",increased from 0 hours to 24 hours post-dosing
Vitamin E,Average Serum Level - Vitamin E,"[2]; Treatment 2: positive control, 15 ml drench, 1200 IU Vitamin E in 15 ml water, 6 Hours",1.8 micrograms/ml
same,Average Serum Level - Vitamin E,"[2]; Treatment 2: positive control, 15 ml drench, 1200 IU Vitamin E in 15 ml water, 24 Hours",2.0 micrograms/ml
same,Average Serum Level - Vitamin E,"[2]; Treatment 2: positive control, 15 ml drench, 1200 IU Vitamin E in 15 ml water, time 0",1.8 micrograms/ml
same,Average Serum Level - Vitamin E,"[2]; Treatment 3: solid form vitamins in 2 ml ethanol, 1,000,000 IU A, 100,000 IU D, 1000 IU E, 1 ml per nostril, 6 Hours",2.7 micrograms/ml
same,Average Serum Level - Vitamin E,"[2]; Treatment 3: solid form vitamins in 2 ml ethanol, 1,000,000 IU A, 100,000 IU D, 1000 IU E, 1 ml per nostril, 24 Hours",2.8 micrograms/ml
same,Average Serum Level - Vitamin E,"[2]; Treatment 3: solid form vitamins in 2 ml ethanol, 1,000,000 IU A, 100,000 IU D, 1000 IU E, 1 ml per nostril, time 0",2.7 micrograms/ml
same,Average Serum Level - Vitamin E,"[2]; Treatment 4: vitamin E, A, D oils, Tween 80, nicotinic acid, Carbopol 934P, Pemulen TR2, NaOH, water, 1000 IU E, 1 ml per nostril, 6 Hours",2.5 micrograms/ml
same,Average Serum Level - Vitamin E,"[2]; Treatment 4: vitamin E, A, D oils, Tween 80, nicotinic acid, Carbopol 934P, Pemulen TR2, NaOH, water, 1000 IU E, 1 ml per nostril, 24 Hours",2.7 micrograms/ml
same,Average Serum Level - Vitamin E,"[2]; Treatment 4: vitamin E, A, D oils, Tween 80, nicotinic acid, Carbopol 934P, Pemulen TR2, NaOH, water, 1000 IU E, 1 ml per nostril, time 0",2.7 micrograms/ml
same,Average Serum Level - Vitamin E,"[2]; Treatment 5: vitamin E, A, D oils, Tween 80, Pemulen TR2, NaOH, water, 1000 IU E, 1 ml per nostril, 6 Hours",2.0 micrograms/ml
same,Average Serum Level - Vitamin E,"[2]; Treatment 5: vitamin E, A, D oils, Tween 80, Pemulen TR2, NaOH, water, 1000 IU E, 1 ml per nostril, 24 Hours",2.2 micrograms/ml
same,Average Serum Level - Vitamin E,"[2]; Treatment 5: vitamin E, A, D oils, Tween 80, Pemulen TR2, NaOH, water, 1000 IU E, 1 ml per nostril, time 0",2.1 micrograms/ml
same,course of serum level of Vitamin E,"[2]; Treatment #3, nasal (FIG. 9, curve 920)",increased from 6 hours to 24 hours post-dosing
same,course of serum level of Vitamin E,"[2]; Treatment #5, nasal (FIG. 9, curve 910)",increased from 6 hours to 24 hours post-dosing
